Results published in patent US20210127673A1, “HERBICIDES” (SYNGENTA PARTICIPATIONS AG, priority 2016, published 2021).

Columns and labels:
Assay type in all cases: in vivo
Conditions in all cases: 1000 g/ha, evaluated after 13 days
[1] = tested on: Triticum aestivium (TRZAW); experiment: Pre-emergence herbicidal activity, Triticum aestivium; set-up: key: 5=total damage to plant; 0=no damage to plant
Description: (§1) Seeds of a variety of test species were sown in standard soil in pots: Triticum aestivium (TRZAW), Avena fatua (AVEFA), Alopecurus myosuroides (ALOMY), Echinochloa crus-galli (ECHCG), Lolium perenne (LOLPE), Zea Mays (ZEAMX), Abutilon theophrasti (ABUTH), Amaranthus retroflexus (AMARE) and Setaria faberi (SETFA). After cultivation for one day (pre-emergence) under controlled conditions in a glasshouse (at 24/16° C., day/night; 14 hours light; 65% humidity), the plants were sprayed with an aqueous spray solution derived from the formulation of the technical active ingredient in acetone/water (50:50) solution containing 0.5% Tween 20 (polyoxyethelyene sorbitan monolaurate, CAS RN 9005-64-5). The test plants were then grown in a glasshouse under controlled conditions (at 24/16°, day/night; 14 hours light; 65% humidity) and watered twice daily. After 13 days, the test was evaluated (5=total damage to plant; 0=no damage to plant).

Avena fatua (AVEFA) [2] = experiment: Pre-emergence herbicidal activity, Avena fatua; set-up: key: 5=total damage to plant; 0=no damage to plant
Description: as §1

[3] = tested on: Alopecurus myosuroides (ALOMY); experiment: Pre-emergence herbicidal activity, Alopecurus myosuroides; set-up: key: 5=total damage to plant; 0=no damage to plant
Description: as §1

[4] = tested on: Echinochloa crus-galli (ECHCG); experiment: Pre-emergence herbicidal activity, Echinochloa crus-galli; set-up: key: 5=total damage to plant; 0=no damage to plant
Description: as §1

Lolium perenne (LOLPE) [5] = experiment: Pre-emergence herbicidal activity, Lolium perenne; set-up: key: 5=total damage to plant; 0=no damage to plant
Description: as §1

Setaria faberi (SETFA) [6] = experiment: Pre-emergence herbicidal activity, Setaria faberi; set-up: key: 5=total damage to plant; 0=no damage to plant
Description: as §1

[7] = tested on: Triticum aestivium (TRZAW); experiment: Post-emergence herbicidal activity, Triticum aestivium; set-up: key: 5=total damage to plant; 0=no damage to plant
Description: (§2) Seeds of a variety of test species were sown in standard soil in pots: Triticum aestivium (TRZAW), Avena fatua (AVEFA), Alopecurus myosuroides (ALOMY), Echinochloa crus-galli (ECHCG), Lolium perenne (LOLPE), Zea Mays (ZEAMX), Abutilon theophrasti (ABUTH), Amaranthus retroflexus (AMARE) and Setaria faberi (SETFA). After 8 days cultivation (post-emergence) under controlled conditions in a glasshouse (at 24/16° C., day/night; 14 hours light; 65% humidity), the plants were sprayed with an aqueous spray solution derived from the formulation of the technical active ingredient in acetone/water (50:50) solution containing 0.5% Tween 20 (polyoxyethelyene sorbitan monolaurate, CAS RN 9005-64-5). The test plants were then grown in a glasshouse under controlled conditions (at 24/16° C., day/night; 14 hours light; 65% humidity) and watered twice daily. After 13 days, the test was evaluated (5=total damage to plant; 0=no damage to plant).

Avena fatua (AVEFA) [8] = experiment: Post-emergence herbicidal activity, Avena fatua
Description: as §2

[9] = tested on: Alopecurus myosuroides (ALOMY); experiment: Post-emergence herbicidal activity, Alopecurus myosuroides; set-up: key: 5=total damage to plant; 0=no damage to plant
Description: as §2

[10] = tested on: Echinochloa crus-galli (ECHCG); experiment: Post-emergence herbicidal activity, Echinochloa crus-galli; set-up: key: 5=total damage to plant; 0=no damage to plant
Description: as §2

Lolium perenne (LOLPE) [11] = experiment: Post-emergence herbicidal activity, Lolium perenne; set-up: key: 5=total damage to plant; 0=no damage to plant
Description: as §2

Setaria faberi (SETFA) [12] = experiment: Post-emergence herbicidal activity, Setaria faberi; set-up: key: 5=total damage to plant; 0=no damage to plant
Description: as §2

SMILES	Control of TRAZW after pre-emergence application (score 0-5) [1]	Control of AVEFA after pre-emergence application (score 0-5) (Avena fatua (AVEFA) [2])	Control of ALOMY after pre-emergence application (score 0-5) [3]	Control of ECHCG after pre-emergence application (score 0-5) [4]	Control of LOLPE after pre-emergence application (score 0-5) (Lolium perenne (LOLPE) [5])	Control of SETFA after pre-emergence application (score 0-5) (Setaria faberi (SETFA) [6])	Control of TRAZW after post-emergence application (score 0-5) [7]	Control of AVEFA after post-emergence application (score 0-5) (Avena fatua (AVEFA) [8])	Control of ALOMY after post-emergence application (score 0-5) [9]	Control of ECHCG after post-emergence application (score 0-5) [10]	Control of LOLPE after post-emergence application (score 0-5) (Lolium perenne (LOLPE) [11])	Control of SETFA after post-emergence application (score 0-5) (Setaria faberi (SETFA) [12])
O=C(Nc1ccc(-c2cncc(F)c2)nc1C(F)(F)F)OC1CCCCC1 [Compound B108]	0	2	0	3	2	5	0	3	0	0	1	5
CC(C)(C)OC(=O)N(Cc1ccc(F)cc1F)c1ccc(-c2cncc(F)c2)nc1C(F)(F)F [Compound B3]	0	0	0	0	0	0	0	2	0	2	0	3
O=C(Nc1ccc(-c2cncc(F)c2)nc1C(F)(F)F)NN1CCOCC1 [Compound B69]	0	1	0	2	1	4	1	3	0	4	2	4
C#CCNC(=O)Nc1ccc(-c2cncc(F)c2)nc1C(F)(F)F [Compound B41]	0	1	0	4	1	5	0	3	0	4	2	5
CC(C)(C)OC(=O)N(C(=O)OC(C)(C)C)c1ccc(-c2cncc(F)c2)nc1C#N [Compound B114]	0	1	0	5	1	5	1	4	0	5	3	5
